Biological target: T1, USP25 (USP25-His6, Boston Biochem E-546) (Homo sapiens, UniProt Q9UHP3)
T1 construct: His6; purchased Boston Biochem E-546
T1 sequence (Q9UHP3 1-1055): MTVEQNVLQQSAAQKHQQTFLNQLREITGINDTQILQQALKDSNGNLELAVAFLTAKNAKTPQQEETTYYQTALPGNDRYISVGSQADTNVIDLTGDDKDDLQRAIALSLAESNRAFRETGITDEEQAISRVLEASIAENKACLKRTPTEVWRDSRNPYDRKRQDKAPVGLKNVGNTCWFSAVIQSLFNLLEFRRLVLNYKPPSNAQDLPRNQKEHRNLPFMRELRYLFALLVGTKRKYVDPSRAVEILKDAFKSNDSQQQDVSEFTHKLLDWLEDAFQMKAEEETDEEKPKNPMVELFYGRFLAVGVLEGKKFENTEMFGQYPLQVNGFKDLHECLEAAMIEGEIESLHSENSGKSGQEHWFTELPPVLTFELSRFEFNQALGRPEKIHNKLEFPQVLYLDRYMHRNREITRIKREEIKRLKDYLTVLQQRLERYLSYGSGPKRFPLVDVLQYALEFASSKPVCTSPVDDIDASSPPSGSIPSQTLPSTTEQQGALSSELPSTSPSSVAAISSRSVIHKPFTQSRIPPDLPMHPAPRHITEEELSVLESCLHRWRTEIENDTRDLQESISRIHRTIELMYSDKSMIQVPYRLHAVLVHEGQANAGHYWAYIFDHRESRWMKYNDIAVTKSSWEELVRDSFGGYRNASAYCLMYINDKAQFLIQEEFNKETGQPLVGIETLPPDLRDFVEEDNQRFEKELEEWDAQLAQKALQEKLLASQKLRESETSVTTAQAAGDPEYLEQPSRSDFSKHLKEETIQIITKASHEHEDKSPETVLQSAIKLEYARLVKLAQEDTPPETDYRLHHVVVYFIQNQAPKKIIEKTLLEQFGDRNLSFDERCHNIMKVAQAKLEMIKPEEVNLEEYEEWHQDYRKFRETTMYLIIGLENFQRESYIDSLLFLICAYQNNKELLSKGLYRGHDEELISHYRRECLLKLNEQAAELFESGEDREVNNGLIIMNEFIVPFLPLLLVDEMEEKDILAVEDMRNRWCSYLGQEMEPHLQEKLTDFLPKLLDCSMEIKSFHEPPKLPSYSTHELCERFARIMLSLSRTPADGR
Experiment: Ubiquitin-Rhodamine 110 Assay for USP25 Activity, Example A-2
Format: biochemical
Conditions: Ubiquitin-Rhodamine 110 assay, Example A-2; read-out: USP25 A-2 IC50 range
How it was run: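 Read-out: Rh110 fluorescence (ex 485, em 535 nm) after 45 min RT turnover of 25 nM Ub-Rh110 by 75 pM USP25-His6, quenched with 10 mM citric acid. Compounds at 25 μM–1.3 nM, preincubated 30 min with enzyme. IC50 from 4-parameter logistic fit.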

| SMILES | IC50 [nM] |
| --- | --- |
| CO[C@H]1CN(c2ccc3c(c2)OC[C@H](NC(=O)c2sc4nc(C)ccc4c2N)C3)CC[C@@H]1N [Example 128, 3-amino-N-[(3R)-7-[(3S,4S)-4-amino-3-methoxypiperidin-1-yl]-3,4-dihydro-2H-1-benzopyran-3-yl]-6-methylthieno[2,3-b]pyridine-2-carboxamide] | 200 to 2000 |
| CO[C@H]1CN(c2ccc3c(c2)CC[C@H](NC(=O)c2sc4nc(C)cnc4c2N)C3)C[C@@H]1N [Example 130, 7-amino-N-[(2S)-6-[(3S,4S)-3-amino-4-methoxypyrrolidin-1-yl]-1,2,3,4-tetrahydronaphthalen-2-yl]-3-methylthieno[2,3-b]pyrazine-6-carboxamide] | 200 to 2000 |
| CCn1ccc2cc(C(=O)N[C@H]3CCc4cc(N5C[C@H](OC)[C@@H](N)C5)ccc4C3)nnc21 [Example 131, N-[(2S)-6-[(3S,4S)-3-amino-4-methoxypyrrolidin-1-yl]-1,2,3,4-tetrahydronaphthalen-2-yl]-7-ethyl-7H-pyrrolo[2,3-c]pyridazine-3-carboxamide] | > 2000 |
| Cc1ccc2c(N)c(C(=O)N[C@H]3COc4cc([C@H]5C[C@@H](N)C5)ccc4C3)sc2n1 [Example 123, 3-amino-6-methyl-N-[(3R)-7-[(1s,3S)-3-aminocyclobutyl]-3,4-dihydro-2H-1-benzopyran-3-yl]thieno[2,3-b]pyridine-2-carboxamide] | 200 to 2000 |
| COC[C@@H]1CNCCN1c1ccc2c(c1)OC[C@H](NC(=O)c1sc3nc(C)ccc3c1N)C2 [Example 155, 3-amino-N-[(3R)-7-[(2S)-2-(methoxymethyl)piperazin-1-yl]-3,4-dihydro-2H-1-benzopyran-3-yl]-6-methylthieno[2,3-b]pyridine-2-carboxamide] | 50 to 200 |
| Cc1ccc2c(N)c(C(=O)N[C@H]3COc4cc(N5CC6CCC(C5)N6)c(C#N)c(F)c4C3)sc2n1 [Example 126, 3-amino-N-[(3R)-6-cyano-7-{3,8-diazabicyclo[3.2.1]octan-3-yl}-5-fluoro-3,4-dihydro-2H-1-benzopyran-3-yl]-6-methylthieno[2,3-b]pyridine-2-carboxamide] | 1 to 50 |
| CO[C@H]1CCN(c2ccc3c(c2)OC[C@H](NC(=O)c2sc4nc(C)ccc4c2N)C3)C[C@@H]1N [Example 119, 3-amino-N-[(3R)-7-[(3S,4S)-3-amino-4-methoxypiperidin-1-yl}-3,4-dihydro-2H-1-benzopyran-3-yl]-6-methylthieno[2,3-b]pyridine-2-carboxamide] | 200 to 2000 |
| CO[C@@H]1CN(c2ccc3c(c2)OC[C@H](NC(=O)c2sc4nc(C)ccc4c2N)C3)C[C@@H]1N [Example 121, 3-amino-N-[(3R)-7-[(3S,4R)-3-amino-4-methoxypyrrolidin-1-yl]-3,4-dihydro-2H-1-benzopyran-3-yl]-6-methylthieno[2,3-b]pyridine-2-carboxamide] | 200 to 2000 |
| Cc1ccc2c(N)c(C(=O)N[C@H]3COc4c(F)c(N5C[C@H]6C[C@@H]5CN6)cc(F)c4C3)sc2n1 [Example 111, 3-amino-N-[(3R)-7-[(1R,4R)-2,5-diazabicyclo[2.2.1]heptan-2-yl]-5,8-difluoro-3,4-dihydro-2H-1-benzopyran-3-yl]-6-methylthieno[2,3-b]pyridine-2-carboxamide] | 50 to 200 |
| CO[C@H]1CN(c2ccc3c(c2)CC[C@H](NC(=O)c2sc4nc(C)ccc4c2N)C3)C[C@@H]1N [Example 116, 3-amino-N-[(2S)-6-[(3S,4S)-3-amino-4-methoxypyrrolidin-1-yl}-1,2,3,4-tetrahydronaphthalen-2-yl]-6-methylthieno[2,3-b]pyridine-2-carboxamide] | 200 to 2000 |
| CO[C@H]1CN(c2ccc3c(c2)CC[C@H](NC(=O)c2sc4nc(C)sc4c2N)C3)C[C@@H]1N [Example 133, 6-amino-N-[(2S)-6-[(3S,4S)-3-amino-4-methoxypyrrolidin-1-yl]-1,2,3,4-tetrahydronaphthalen-2-yl]-2-methylthieno[2,3-d][1,3]thiazole-5-carboxamide] | > 2000 |

From US11524966B1 (Valo Early Discovery, Inc., priority 2017, dated 2022)
